Measurements taken from patent publication US20230295200A1 (REGENTS OF THE UNIVERSITY OF MICHIGAN, priority 2022, published 2023).

Columns and labels:
STAT6 protein = target: T1, STAT6 protein (Homo sapiens, UniProt P42226); assay: Fluorescence polarization (FP) binding assay, STAT6; settings: FP competition, 5 nM fluorescein-labeled tracer, 200 nM protein, PBS pH7.4; read-out: Binding STAT6
T1 sequence (P42226 1-847): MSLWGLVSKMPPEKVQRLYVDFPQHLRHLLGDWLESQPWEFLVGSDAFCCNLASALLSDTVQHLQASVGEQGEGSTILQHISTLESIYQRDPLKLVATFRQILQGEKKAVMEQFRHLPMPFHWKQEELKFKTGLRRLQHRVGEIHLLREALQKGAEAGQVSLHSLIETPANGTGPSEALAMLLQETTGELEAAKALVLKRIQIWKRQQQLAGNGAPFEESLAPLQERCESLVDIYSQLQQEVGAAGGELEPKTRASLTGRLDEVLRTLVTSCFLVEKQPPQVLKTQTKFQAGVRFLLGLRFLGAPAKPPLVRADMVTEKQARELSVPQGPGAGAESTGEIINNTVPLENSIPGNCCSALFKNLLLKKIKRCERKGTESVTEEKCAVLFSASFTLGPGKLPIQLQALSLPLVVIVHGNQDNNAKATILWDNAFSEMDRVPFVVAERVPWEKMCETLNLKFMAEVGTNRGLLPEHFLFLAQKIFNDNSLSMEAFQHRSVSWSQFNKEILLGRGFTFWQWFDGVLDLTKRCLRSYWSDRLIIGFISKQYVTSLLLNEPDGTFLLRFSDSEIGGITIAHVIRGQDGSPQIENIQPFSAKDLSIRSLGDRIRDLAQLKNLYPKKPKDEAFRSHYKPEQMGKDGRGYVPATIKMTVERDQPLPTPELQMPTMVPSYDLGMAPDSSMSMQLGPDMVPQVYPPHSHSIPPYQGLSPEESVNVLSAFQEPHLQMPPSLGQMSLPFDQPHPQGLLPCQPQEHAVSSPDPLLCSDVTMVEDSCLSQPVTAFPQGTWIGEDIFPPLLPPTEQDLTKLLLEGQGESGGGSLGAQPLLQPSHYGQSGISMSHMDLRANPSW
Summary of the method: (§1)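 Each well holds 200 nM STAT5 and/or STAT6 with 5 nM fluorescent tracer in PBS pH 7.4 (0.01% BGG, 0.01% Tween-20, 2 mM DTT). Binding reaches equilibrium over 1 h at room temperature after brief shaking, and polarization data are fitted nonlinearly.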

STAT5A = target: T2, STAT5A (Homo sapiens, UniProt P42229); assay: Fluorescence polarization (FP) binding assay, STAT5A; settings: FP competition, 5 nM fluorescein-labeled tracer, 200 nM protein, PBS pH7.4
T2 sequence (P42229 1-794): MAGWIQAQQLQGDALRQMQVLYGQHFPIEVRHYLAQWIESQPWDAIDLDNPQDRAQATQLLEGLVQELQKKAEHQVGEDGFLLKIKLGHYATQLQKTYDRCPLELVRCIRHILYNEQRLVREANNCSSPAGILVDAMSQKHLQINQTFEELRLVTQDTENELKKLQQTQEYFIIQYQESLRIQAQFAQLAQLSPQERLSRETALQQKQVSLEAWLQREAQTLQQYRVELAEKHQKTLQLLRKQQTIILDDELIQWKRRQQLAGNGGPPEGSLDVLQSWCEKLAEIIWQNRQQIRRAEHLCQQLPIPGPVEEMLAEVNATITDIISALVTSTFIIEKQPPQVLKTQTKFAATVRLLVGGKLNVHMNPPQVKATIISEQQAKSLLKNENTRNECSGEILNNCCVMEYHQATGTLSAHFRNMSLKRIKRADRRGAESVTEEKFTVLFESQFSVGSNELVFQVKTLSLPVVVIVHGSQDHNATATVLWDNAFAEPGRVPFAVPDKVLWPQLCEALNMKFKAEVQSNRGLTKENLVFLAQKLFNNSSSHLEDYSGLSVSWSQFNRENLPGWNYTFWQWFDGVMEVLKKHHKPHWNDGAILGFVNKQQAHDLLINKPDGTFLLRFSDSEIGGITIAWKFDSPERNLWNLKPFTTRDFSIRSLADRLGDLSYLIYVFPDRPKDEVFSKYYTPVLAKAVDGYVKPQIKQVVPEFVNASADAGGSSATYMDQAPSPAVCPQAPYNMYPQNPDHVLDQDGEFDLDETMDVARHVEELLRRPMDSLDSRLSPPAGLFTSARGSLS
Summary of the method: as §1

Ki (STAT6 protein)	Ki (STAT5A)	Compound
> 10 µM	> 10 µM	CC(=O)N1C[C@H]2CCN(C(=O)[C@@H]3CCCN3C(=O)[C@@H](NC(=O)c3cc4cc(C(F)(F)P(=O)(O)O)ccc4s3)C(C)(C)C)[C@H]2C1 [Compound 84, ((2-(((S)-1-((S)-2-((3aR,6aR)-5-acetyloctahydropyrrolo[3,4-b]pyrrole-1-carbonyl)pyrrolidin-1-yl)-3,3-dimethyl-1-oxobutan-2-yl)carbamoyl)benzo[b]thiophen-5-yl)difluoromethyl)phosphonic acid]
> 10 µM	> 10 µM	CCCCC(=O)N1C[C@H]2CCN(C(=O)[C@@H]3CCCN3C(=O)[C@@H](NC(=O)c3cc4cc(C(F)(F)P(=O)(O)O)ccc4s3)C(C)(C)C)[C@H]2C1 [Compound 85, ((2-(((S)-3,3-dimethyl-1-oxo-1-((S)-2-((3aR,6aR)-5-pentanoyloctahydropyrrolo[3,4-b]pyrrole-1-carbonyl)pyrrolidin-1-yl)butan-2-yl)carbamoyl)benzo[b]thiophen-5-yl)difluoromethyl)phosphonic acid]
> 10 µM	> 10 µM	CC(C)(C)[C@H](NC(=O)c1cc2cc(C(F)(F)P(=O)(O)O)ccc2s1)C(=O)N1CCC[C@H]1C(=O)N1CC[C@@H]2CN(C(=O)c3ccc(F)cc3)C[C@@H]21 [Compound 86, (difluoro(2-(((S)-1-((S)-2-((3aR,6aR)-5-(4-fluorobenzoyl)octahydropyrrolo[3,4-b]pyrrole-1-carbonyl)pyrrolidin-1-yl)-3,3-dimethyl-1-oxobutan-2-yl)carbamoyl)benzo[b]thiophen-5-yl)methyl)phosphonic acid]
> 10 µM	> 10 µM	CC(=O)N1CC[C@@H]2CN(C(=O)[C@@H]3CCCN3C(=O)[C@@H](NC(=O)c3cc4cc(C(F)(F)P(=O)(O)O)ccc4s3)C(C)(C)C)C[C@@H]21 [Compound 87, ((2-(((S)-1-((S)-2-((3aR,6aR)-1-acetyloctahydropyrrolo[3,4-b]pyrrole-5-carbonyl)pyrrolidin-1-yl)-3,3-dimethyl-1-oxobutan-2-yl)carbamoyl)benzo[b]thiophen-5-yl)difluoromethyl)phosphonic acid]
> 10 µM	> 10 µM	CCCCC(=O)N1CC[C@@H]2CN(C(=O)[C@@H]3CCCN3C(=O)[C@@H](NC(=O)c3cc4cc(C(F)(F)P(=O)(O)O)ccc4s3)C(C)(C)C)C[C@@H]21 [Compound 88, ((2-(((S)-3,3-dimethyl-1-oxo-1-((S)-2-((3aR,6aR)-1-pentanoyloctahydropyrrolo[3,4-b]pyrrole-5-carbonyl)pyrrolidin-1-yl)butan-2-yl)carbamoyl)benzo[b]thiophen-5-yl)difluoromethyl)phosphonic acid]
> 10 µM	> 10 µM	CC(C)(C)[C@H](NC(=O)c1cc2cc(C(F)(F)P(=O)(O)O)ccc2s1)C(=O)N1CCC[C@H]1C(=O)N1C[C@H]2CCN(C(=O)c3ccc(F)cc3)[C@H]2C1 [Compound 89, (difluoro(2-(((S)-1-((S)-2-((3aR,6aR)-1-(4-fluorobenzoyl)octahydropyrrolo[3,4-b]pyrrole-5-carbonyl)pyrrolidin-1-yl)-3,3-dimethyl-1-oxobutan-2-yl)carbamoyl)benzo[b]thiophen-5-yl)methyl)phosphonic acid]
> 10 µM	> 10 µM	CC(=O)N1CC[C@H]2CCN(C(=O)[C@@H]3CCCN3C(=O)[C@@H](NC(=O)c3cc4cc(C(F)(F)P(=O)(O)O)ccc4s3)C(C)(C)C)[C@H]2C1 [Compound 90, ((2-(((S)-1-((S)-2-((3aS,7aR)-6-acetyloctahydro-1H-pyrrolo[2,3-c]pyridine-1-carbonyl)pyrrolidin-1-yl)-3,3-dimethyl-1-oxobutan-2-yl)carbamoyl)benzo[b]thiophen-5-yl)difluoromethyl)phosphonic acid]
> 10 µM	> 10 µM	CCCCC(=O)N1CC[C@H]2CCN(C(=O)[C@@H]3CCCN3C(=O)[C@@H](NC(=O)c3cc4cc(C(F)(F)P(=O)(O)O)ccc4s3)C(C)(C)C)[C@H]2C1 [Compound 91, ((2-(((S)-3,3-dimethyl-1-oxo-1-((S)-2-((3aS,7aR)-6-pentanoyloctahydro-1H-pyrrolo[2,3-c]pyridine-1-carbonyl)pyrrolidin-1-yl)butan-2-yl)carbamoyl)benzo[b]thiophen-5-yl)difluoromethyl)phosphonic acid]
> 10 µM	> 10 µM	CC(=O)N1C[C@@H]2CCN(C(=O)[C@@H]3CCCN3C(=O)[C@@H](NC(=O)c3cc4cc(C(F)(F)P(=O)(O)O)ccc4s3)C(C)(C)C)[C@@H]2C1 [Compound 92, ((2-(((S)-1-((S)-2-((3aS,6aS)-5-acetyloctahydropyrrolo[3,4-b]pyrrole-1-carbonyl)pyrrolidin-1-yl)-3,3-dimethyl-1-oxobutan-2-yl)carbamoyl)benzo[b]thiophen-5-yl)difluoromethyl)phosphonic acid]
> 10 µM	> 10 µM	CCCCC(=O)N1C[C@@H]2CCN(C(=O)[C@@H]3CCCN3C(=O)[C@@H](NC(=O)c3cc4cc(C(F)(F)P(=O)(O)O)ccc4s3)C(C)(C)C)[C@@H]2C1 [Compound 93, ((2-(((S)-3,3-dimethyl-1-oxo-1-((S)-2-((3aS,6aS)-5-pentanoyloctahydropyrrolo[3,4-b]pyrrole-1-carbonyl)pyrrolidin-1-yl)butan-2-yl)carbamoyl)benzo[b]thiophen-5-yl)difluoromethyl)phosphonic acid]
> 10 µM	> 10 µM	CC(C)(C)[C@H](NC(=O)c1cc2cc(C(F)(F)P(=O)(O)O)ccc2s1)C(=O)N1CCC[C@H]1C(=O)N1CC[C@H]2CN(C(=O)c3ccc(F)cc3)C[C@H]21 [Compound 94, (difluoro(2-(((S)-1-((S)-2-((3aS,6aS)-5-(4-fluorobenzoyl)octahydropyrrolo[3,4-b]pyrrole-1-carbonyl)pyrrolidin-1-yl)-3,3-dimethyl-1-oxobutan-2-yl)carbamoyl)benzo[b]thiophen-5-yl)methyl)phosphonic acid]
> 10 µM	> 10 µM	CC(=O)N1CC[C@H]2CN(C(=O)[C@@H]3CCCN3C(=O)[C@@H](NC(=O)c3cc4cc(C(F)(F)P(=O)(O)O)ccc4s3)C(C)(C)C)C[C@H]21 [Compound 95, ((2-(((S)-1-((S)-2-((3aS,6aS)-1-acetyloctahydropyrrolo[3,4-b]pyrrole-5-carbonyl)pyrrolidin-1-yl)-3,3-dimethyl-1-oxobutan-2-yl)carbamoyl)benzo[b]thiophen-5-yl)difluoromethyl)phosphonic acid]
> 10 µM	> 10 µM	CCCCC(=O)N1CC[C@H]2CN(C(=O)[C@@H]3CCCN3C(=O)[C@@H](NC(=O)c3cc4cc(C(F)(F)P(=O)(O)O)ccc4s3)C(C)(C)C)C[C@H]21 [Compound 96, ((2-(((S)-3,3-dimethyl-1-oxo-1-((S)-2-((3aS,6aS)-1-pentanoyloctahydropyrrolo[3,4-b]pyrrole-5-carbonyl)pyrrolidin-1-yl)butan-2-yl)carbamoyl)benzo[b]thiophen-5-yl)difluoromethyl)phosphonic acid]
